Source: patent publication US10786484B2, “Mono- or di-substituted indole derivatives as dengue viral replication inhibitors” (Janssen Pharmaceuticals, Inc., priority 2015, dated 2020)

What was measured:
Vero cells = conditions: African green monkey
[1] = system: DENV-2 16681 strain labeled with eGFP; assay: DENV-2 antiviral assay (eGFP fluorescence read-out in Vero cells); type: cell-based, Dengue virus; conditions: DENV-2 16681 eGFP, MOI 0.5, 3 days
Experimental: The antiviral activity of all the compounds of the invention was tested against the DENV-2 16681 strain which was labeled with enhanced green fluorescent protein (eGPF). The culture medium consists of minimal essential medium supplemented with 2% of heat-inactivated fetal calf serum, 0.04% gentamycin (50 mg/mL) and 2 mM of L-glutamine. Vero cells, obtained from ECACC, were suspended in culture medium and 25 μL was added to 384-well plates (2500 cells/well), which already contain the antiviral compounds. Typically, these plates contain a 5-fold serial dilution of 9 dilution steps of the test compound at 200 times the final concentration in 100% DMSO (200 nL). […] Finally, each plate contains wells which are assigned as virus controls (containing cells and virus in the absence of compound), cell controls (containing cells in the absence of virus and compound) and medium controls (containing medium in the absence of cells, virus and compounds). To the wells assigned as medium control, 25 μL of culture medium was added instead of Vero cells. Once the cells were added to the plates, the plates were incubated for 30 minutes at room temperature to allow the cells to distribute evenly within the wells. Next, the plates were incubated in a fully humidified incubator (37° C., 5% CO2) until the next day. Then, DENV-2 strain 16681, labeled with eGFP, was added at a multiplicity of infection (MOI) of 0.5. Therefore, 15 μL of virus suspension was added to all the wells containing test compound and to the wells assigned as virus control. In parallel, 15 μL of culture medium was added to the medium and cell controls. Next, the plates were incubated for 3 days in a fully humidified incubator (37° C., 5% CO2). At the day of the read out, the eGFP fluorescence was measured using an automated fluorescence microscope at 488 nm (blue laser). Using an in-house LIMS system, inhibition dose response curves for each compound were calculated and the half maximal effective concentration (EC50) was determined. Therefore, the percent inhibition (I) for every test concentration is calculated using the following formula: I=100*([…])/(SVC−SCC); ST, SCC and SVC are the amount of eGFP signal in the test compound, cell control and virus control wells, respectively. The EC50 represents the concentration of a compound at which the virus replication is inhibited with 50%, as measured by a 50% reduction of the eGFP fluorescent intensity compared to the virus control. The EC50 is calculated using linear interpolation (Table 1).

DENV-1 strain TC974#666 = assay: Tetravalent RT-qPCR assay Protocol A, serotype 1; type: cell-based; conditions: Dengue virus, DENV1, 72 h; RT-qPCR serotype 1 TC974#666, Vero cells, day 3
Experimental: (§1) The antiviral activity of the compounds of the invention was tested against DENV-1 strain TC974#666 (NCPV), DENV-2 strain 16681, DENV-3 strain H87 (NCPV) and DENV-4 strains H241 (NCPV) and EDEN (SG/06K2270DK1/2005; GenBank accession number QG398256) in a RT-qPCR assay. Therefore, Vero cells were infected with either DENV-1, or -2, or -3, or -4 in the presence or absence of test compounds. At day 3 post-infection, the cells were lysed and cell lysates were used to prepare cDNA of both a viral target (the 3′UTR of DENV; Table 2) and a cellular reference gene (β-actin, Table 2). Subsequently, a duplex real time PCR was performed on a Lightcycler480 instrument. The generated Cp value is inversely proportional to the amount of RNA expression of these targets. Inhibition of DENV replication by a test compound results in a shift of Cp's for the 3′UTR gene. On the other hand, if a test compound is toxic to the cells, a similar effect on β-actin expression will be observed. The comparative ΔΔCp method is used to calculate EC50, which is based on the relative gene expression of the target gene (3′UTR) normalized with the cellular housekeeping gene (β-actin). In addition, CC50 values are determined based on the Cp values acquired for the housekeeping gene β-actin.
(§2) The culture medium consisted of minimal essential medium supplemented with 2% of heat-inactivated fetal calf serum, 0.04% gentamycin (50 mg/mL) and 2 mM of L-glutamine. Vero cells, obtained from ECACC, were suspended in culture medium and 75 μL/well was added in 96-well plates (10000 cells/well), which already contain the antiviral compounds. […] In addition, each plate contains wells which are assigned as virus controls (containing cells and virus in the absence of compound) and cell controls (containing cells in the absence of virus and compound). Once the cells were added in the plates, the plates were incubated in a fully humidified incubator (37° C., 5% CO2) until the next day. Dengue viruses serotype-1, 2, 3 and 4 were diluted in order to obtain a Cp of ˜22-24 in the assay. Therefore, 25 μL of virus suspension, was added to all the wells containing test compound and to the wells assigned as virus control. In parallel, 25 μL of culture medium was added to the cell controls. Next, the plates were incubated for 3 days in a fully humidified incubator (37° C., 5% CO2). After 3 days, the supernatant was removed from the wells and the cells were washed twice with ice-cold PBS (−100 μL). The cell pellets within the 96-well plates were stored at −80° C. for at least 1 day. Next, RNA was extracted using the Cells-to-CT™ lysis kit, according to the manufacturer's guideline (Life Technologies). The cell lysates can be stored at −80° C. or immediately used in the reverse transcription step.
(§3) In preparation of the reverse transcription step, mix A (table 3A) was prepared and 7.57 μL/well was dispensed in a 96-well plate. After addition of 5 μL of the cell lysates, a five minute denaturation step at 75° C. was performed (table 3B). Afterwards, 7.43 μL of mix B was added (table 3C) and the reverse transcription step was initiated (table 3D) to generate cDNA.
(§4) Finally, a RT-qPCR mix was prepared, mix C (table 4A), and 22.02 μL/well was dispensed in 96-well LightCycler qPCR plates to which 3 μL of cDNA was added and the qPCR was performed according to the conditions in table 4B on a LightCycler 480.
(§5) Using the LightCycler software and an in-house LIMS system, dose response curves for each compound were calculated and the half maximal effective concentration (EC50) and the half maximal cytotoxic concentration (CC50) were determined (Tables 5-8).

DENV-3 strain H87 = assay: Tetravalent RT-qPCR assay Protocol A, serotype 3; type: cell-based; conditions: Dengue virus, DENV3, 72 h; RT-qPCR serotype 3 H87, Vero cells, day 3
Experimental: as §1, §2, §3, §4, §5

DENV-4 strain H241 = assay: Tetravalent RT-qPCR assay Protocol A, serotype 4 H241; type: cell-based; conditions: Dengue virus, DENV4, 72 h; RT-qPCR serotype 4 H241, Vero cells, day 3
Experimental: as §1, §2, §3, §4, §5

DENV-2 strain 16681 = assay: Tetravalent RT-qPCR assay Protocol A, serotype 2; type: cell-based; conditions: Dengue virus, DENV2, 72 h; RT-qPCR serotype 2 16681, Vero cells, day 3
Experimental: as §1, §2, §3, §4, §5

SMILES	CC50 (Vero cells)	EC50 [1]	EC50 (DENV-1 strain TC974#666)	EC50 (DENV-3 strain H87)	EC50 (DENV-4 strain H241)	EC50 (DENV-2 strain 16681)
COc1cc(NC(C(=O)c2c[nH]c3cc(F)ccc23)c2ccc(F)cc2OCCO)cc(S(C)(=O)=O)c1 (single isomer, unassigned) [Compound 1B, 1-(6-fluoro-1H-indol-3-yl)-2-(4-fluoro-2-(2-hydroxyethoxy)phenyl)-2-((3-methoxy-5-(methylsulfonyl)phenyl)amino)ethanone]	13000 nM	85 nM				
COc1cc(NC(C(=O)c2c[nH]c3cc(F)c(F)cc23)c2ccc(F)cc2OCCO)cc(S(C)(=O)=O)c1 (single isomer, unassigned) [Compound 5B, 1-(5,6-difluoro-1H-indol-3-yl)-2-(4-fluoro-2-(2-hydroxyethoxy)phenyl)-2-((3-methoxy-5-(methylsulfonyl)phenyl)-amino)ethanone]	11000 nM	16 nM				
COc1cc(NC(C(=O)c2c[nH]c3cc(OC)c(C)cc23)c2ccc(F)cc2OCCO)cc(S(C)(=O)=O)c1 (single isomer, unassigned) [Compound 6B, 2-(4-fluoro-2-(2-hydroxyethoxy)phenyl)-2-((3-methoxy-5-(methylsulfonyl)phenyl)amino)-1-(6-methoxy-5-methyl-1H-indol-3-yl)ethanone]	13000 nM	160 nM				
COc1cc(NC(C(=O)c2c[nH]c3c(F)cc(C)cc23)c2ccc(F)cc2OCCO)cc(S(C)(=O)=O)c1 (single isomer, unassigned) [Compound 8B, 2-(4-fluoro-2-(2-hydroxyethoxy)phenyl)-1-(7-fluoro-5-methyl-1H-indol-3-yl)-2-((3-methoxy-5-(methylsulfonyl)phenyl)amino)ethanone]	8200 nM	48 nM				
COc1cc(NC(C(=O)c2c[nH]c3cc(OC)c(OC(F)(F)F)cc23)c2ccc(F)cc2OCCO)cc(S(C)(=O)=O)c1 (single isomer, unassigned) [Compound 11A, 2-(4-fluoro-2-(2-hydroxyethoxy)phenyl)-2-((3-methoxy-5-(methyl-sulfonyl)phenyl)amino)-1-(6-methoxy-5-(trifluoromethoxy)-1H-indol-3-yl)ethanone]	12000 nM	19 nM				
COc1cc(NC(C(=O)c2c[nH]c3c(F)cc(C)cc23)c2ccc(F)cc2OCCO)cc(S(C)(=O)=O)c1 (single isomer, unassigned) [Compound 8A, 2-(4-fluoro-2-(2-hydroxyethoxy)phenyl)-1-(7-fluoro-5-methyl-1H-indol-3-yl)-2-((3-methoxy-5-(methylsulfonyl)phenyl)amino)ethanone]	3400 nM	1.1 nM	2.3 nM	36 nM	220 nM	1.4 nM
COc1cc(NC(C(=O)c2c[nH]c3c(C)c(Cl)ccc23)c2ccc(F)cc2OCCO)cc(S(C)(=O)=O)c1 (single isomer, unassigned) [Compound 4A, 1-(6-chloro-7-methyl-1H-indol-3-yl)-2-(4-fluoro-2-(2-hydroxyethoxy)phenyl)-2-((3-methoxy-5-(methylsulfonyl)phenyl)amino)ethanone]	11000 nM	11 nM				
COc1cc(NC(C(=O)c2c[nH]c3c(C)c(F)ccc23)c2ccc(F)cc2OCCO)cc(S(C)(=O)=O)c1 (single isomer, unassigned) [Compound 3B, 2-(4-fluoro-2-(2-hydroxyethoxy)phenyl)-1-(6-fluoro-7-methyl-1H-indol-3-yl)-2-((3-methoxy-5-(methylsulfonyl)phenyl)amino)ethanone]	11000 nM	29 nM				
COc1cc(NC(C(=O)c2c[nH]c3ccc(OC(F)(F)F)cc23)c2ccc(F)cc2OCCO)cc(S(C)(=O)=O)c1 (single isomer, unassigned) [Compound 10A, 2-(4-fluoro-2-(2-hydroxyethoxy)phenyl)-2-((3-methoxy-5-(methylsulfonyl)phenyl)amino)-1-(5-(trifluoromethoxy)-1H-indol-3-yl)ethanone]	12000 nM	20 nM				
COc1cc(NC(C(=O)c2c[nH]c3c(C)cc(OC(F)(F)F)cc23)c2ccc(F)cc2OCCO)cc(S(C)(=O)=O)c1 (single isomer, unassigned) [Compound 12B, 2-(4-fluoro-2-(2-hydroxyethoxy)phenyl)-2-((3-methoxy-5-(methylsulfonyl)phenyl)amino)-1-(7-methyl-5-(trifluoromethoxy)-1H-indol-3-yl)ethanone]	9900 nM	1.2 nM				
COc1cc(NC(C(=O)c2c[nH]c3c(C)cc(Cl)cc23)c2ccc(F)cc2OCCO)cc(S(C)(=O)=O)c1 (single isomer, unassigned) [Compound 9B, 1-(5-chloro-7-methyl-1H-indol-3-yl)-2-(4-fluoro-2-(2-hydroxyethoxy)phenyl)-2-((3-methoxy-5-(methylsulfonyl)phenyl)amino)ethanone]	13000 nM	51 nM				
COc1cc(NC(C(=O)c2c[nH]c3cc(Cl)ccc23)c2ccc(F)cc2OCCO)cc(S(C)(=O)=O)c1 (single isomer, unassigned) [Compound 2B, 1-(6-chloro-1H-indol-3-yl)-2-(4-fluoro-2-(2-hydroxyethoxy)phenyl)-2-((3-methoxy-5-(methylsulfonyl)phenyl)amino)-ethanone]	12000 nM	21 nM				
COc1cc(NC(C(=O)c2c[nH]c3cc(F)c(C)cc23)c2ccc(F)cc2OCCO)cc(S(C)(=O)=O)c1 (single isomer, unassigned) [Compound 7B, 2-(4-fluoro-2-(2-hydroxyethoxy)phenyl)-1-(6-fluoro-5-methyl-1H-indol-3-yl)-2-((3-methoxy-5-(methylsulfonyl)phenyl)amino)ethanone]	8000 nM	36 nM				
